The values that follow come from US20070208166A1, “Tao Kinase Modulators And Method Of Use” (Exelixis, Inc., priority 2003, published 2007).

Common to all, as to format: biochemical
Test [1] has as its target T1, TAO (Homo sapiens, UniProt Q9UL54).
T1 sequence (Q9UL54 1-1235): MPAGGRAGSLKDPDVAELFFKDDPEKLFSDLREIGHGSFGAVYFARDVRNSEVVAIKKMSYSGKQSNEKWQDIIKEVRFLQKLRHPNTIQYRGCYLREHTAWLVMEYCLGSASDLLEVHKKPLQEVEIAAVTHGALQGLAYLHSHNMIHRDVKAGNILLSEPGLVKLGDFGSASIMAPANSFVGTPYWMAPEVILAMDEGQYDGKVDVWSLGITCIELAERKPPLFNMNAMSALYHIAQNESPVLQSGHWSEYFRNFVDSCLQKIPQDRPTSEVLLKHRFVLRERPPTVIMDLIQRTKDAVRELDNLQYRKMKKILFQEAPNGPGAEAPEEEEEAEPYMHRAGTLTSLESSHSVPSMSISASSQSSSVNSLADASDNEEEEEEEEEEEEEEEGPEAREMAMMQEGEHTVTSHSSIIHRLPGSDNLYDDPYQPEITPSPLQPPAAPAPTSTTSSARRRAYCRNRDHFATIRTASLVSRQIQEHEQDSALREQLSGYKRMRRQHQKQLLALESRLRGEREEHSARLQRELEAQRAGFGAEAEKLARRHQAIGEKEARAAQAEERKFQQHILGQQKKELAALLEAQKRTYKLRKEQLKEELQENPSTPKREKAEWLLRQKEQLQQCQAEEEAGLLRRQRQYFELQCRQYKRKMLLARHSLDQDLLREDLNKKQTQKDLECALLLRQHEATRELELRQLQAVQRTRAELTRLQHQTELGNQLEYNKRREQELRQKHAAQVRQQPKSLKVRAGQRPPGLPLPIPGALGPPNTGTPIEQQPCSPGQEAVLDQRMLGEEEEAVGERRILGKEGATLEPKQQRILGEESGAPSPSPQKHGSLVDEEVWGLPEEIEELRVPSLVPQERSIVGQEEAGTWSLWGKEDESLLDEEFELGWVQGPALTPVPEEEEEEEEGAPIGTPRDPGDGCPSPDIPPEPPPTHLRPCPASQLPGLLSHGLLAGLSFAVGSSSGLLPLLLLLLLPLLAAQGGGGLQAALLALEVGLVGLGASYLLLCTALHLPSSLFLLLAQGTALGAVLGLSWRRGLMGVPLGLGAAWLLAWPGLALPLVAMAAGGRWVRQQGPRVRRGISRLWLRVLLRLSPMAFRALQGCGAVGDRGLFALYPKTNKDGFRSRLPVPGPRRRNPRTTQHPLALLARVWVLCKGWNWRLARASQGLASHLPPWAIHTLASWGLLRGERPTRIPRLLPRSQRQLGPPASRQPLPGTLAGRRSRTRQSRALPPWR
Nature of the test: TAO Luciferase-Coupled Chemiluminescent Kinase assay (LCCA). As to conditions: 2 μM ATP, 10 μM MBP, 12 nM TAO, 2 hours; read-out: TAO inhibition IC50.

Test [2] concerns the target T2, JIK (Homo sapiens, UniProt Q9H2K8).
T2 construct: 6 nM JIK (baculovirus expressed human KIAA 1361 kinase domain2-318); made in house
T2 sequence (Q9H2K8 2-318): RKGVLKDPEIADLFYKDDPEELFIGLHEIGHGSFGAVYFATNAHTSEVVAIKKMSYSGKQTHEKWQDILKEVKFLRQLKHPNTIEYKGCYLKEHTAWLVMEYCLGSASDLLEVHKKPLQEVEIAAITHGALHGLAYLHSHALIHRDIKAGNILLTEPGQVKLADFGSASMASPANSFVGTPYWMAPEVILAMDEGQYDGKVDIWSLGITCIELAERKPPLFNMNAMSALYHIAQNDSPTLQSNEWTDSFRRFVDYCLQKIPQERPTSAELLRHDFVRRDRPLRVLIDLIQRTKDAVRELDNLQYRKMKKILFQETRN
The experiment in a line: JIK Luciferase-Coupled Chemiluminescent Kinase assay (LCCA). As to conditions: 2 μM ATP, 10 μM MBP, 6 nM JIK, 2 hours; read-out: JIK inhibition IC50. The procedure, abridged:
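Baculovirus-expressed human KIAA 1361 kinase domain 2-318 at 6 nM, with 10 μM MBP and 2 μM ATP in Tris pH 7.5 with Mg/Mn, ran 2 h at ambient temperature. Remaining ATP was read by luciferase chemiluminescence. IC50 comes from a 10-concentration four-parameter fit.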

Test [3] addresses T3, KIAA 1361 (baculovirus expressed human KIAA 1361 kinase domain 2-322) (Homo sapiens, UniProt Q7L7X3).
T3 construct: human KIAA 1361 kinase domain 2-322; made in house
T3 sequence (Q7L7X3 2-322): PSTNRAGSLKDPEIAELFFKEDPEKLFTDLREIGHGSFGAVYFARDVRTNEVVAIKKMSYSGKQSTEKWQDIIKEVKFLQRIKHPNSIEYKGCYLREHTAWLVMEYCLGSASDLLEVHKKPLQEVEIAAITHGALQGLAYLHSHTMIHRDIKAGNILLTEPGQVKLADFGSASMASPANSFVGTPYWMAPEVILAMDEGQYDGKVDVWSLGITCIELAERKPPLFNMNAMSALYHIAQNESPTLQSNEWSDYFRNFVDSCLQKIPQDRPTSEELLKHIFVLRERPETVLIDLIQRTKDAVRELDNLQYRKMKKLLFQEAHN
Nature of the test: KIAA 1361 Luciferase-Coupled Chemiluminescent Kinase assay (LCCA). As to conditions: 2 μM ATP, 10 μM MBP, 12 nM KIAA 1361, 2 hours; read-out: KIAA1361 inhibition IC50. The procedure, abridged: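 KIAA 1361 kinase domain 2-322 (baculovirus, 12 nM) with 2 μM ATP and 10 μM MBP in Tris pH 7.5, MgCl2, MnCl2; 2 h, ambient. Remaining ATP read by luciferase chemiluminescence; 10 concentrations, IC50 by four-parameter fit.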

For `O=C(CCN1CCCCC1)NCC(=O)NC1CCCc2ccccc21` (stereo not drawn) [Entry 88, N-[2-oxo-2-(1,2,3,4-tetrahydronaphthalen-1-ylamino)ethyl]-3-piperidin-1-ylpropanamide], the IC50 in test [1], in test [2] and in test [3] was more than 5000 nM throughout.

On to `COc1cc2cc(C(=O)N[C@@H](Cc3c[nH]c4ccccc34)C(=O)NC3CCCc4ccccc43)[nH]c2cc1OC` (stereo partly drawn) [Entry 13, Nalpha-{[5,6-bis(methyloxy)-1H-indol-2-yl]carbonyl}-N-(1,2,3,4-tetrahydronaphthalen-1-yl)tryptophanamide], for which the figures for the IC50 in test [1], in test [2] and in test [3] were 500 to 5000 nM, less than 50 nM and 50 to 500 nM, respectively.

As to `O=C(COc1ccc(-c2nccc(-c3ccccn3)n2)cc1)NCc1ccc(Cl)c(Cl)c1` [Entry 38, N-[(3,4-dichlorophenyl)methyl]-2-{[4-(4-pyridin-2-ylpyrimidin-2-yl)phenyl]oxy]acetamide], the figures for the 50% inhibitory concentration (IC50) in test [1], in test [2] and in test [3] were 50 to 500 nM, less than 50 nM and less than 50 nM, respectively.

With `CCc1ccc(-c2ccc(C(=O)NCC(=O)N[C@@H]3CCCc4ccccc43)cc2)cc1` [Entry 76, 4′-ethyl-N-{2-oxo-2-[(1R)-1,2,3,4-tetrahydronaphthalen-1-ylamino]ethyl}biphenyl-4-carboxamide], the IC50 in test [1], in test [2] and in test [3] was more than 5000 nM in each case.

On to `CCc1ccc(-c2ccc(C(=O)NCC(=O)NC3CNCc4ccccc43)cc2)cc1` (stereo not drawn) [Entry 96, 4′-ethyl-N-[2-oxo-2-(1,2,3,4-tetrahydroisoquinolin-4-ylamino)ethyl]biphenyl-4-carboxamide], for which the IC50 in test [1], in test [2] and in test [3] was 500 to 5000 nM throughout.

As for `O=C(CNC(=O)NCCc1ccc(-c2ccccc2)cc1)NC1CCCc2ccccc21` (stereo not drawn) [Entry 72, N˜2˜-{[(2-biphenyl-4-ylethyl)amino]carbonyl}-N-(1,2,3,4-tetrahydronaphthalen-1-yl)glycinamide], the IC50 in test [1], in test [2] and in test [3] was more than 5000 nM each time.

With `CCCCCCOc1ccc(C(=O)NC(C)C(=O)NC2CCc3ccccc3C2)cc1` (stereo not drawn) [Entry 36, 4-(hexyloxy)-N-[1-methyl-2-oxo-2-(1,2,3,4-tetrahydronaphthalen-2-ylamino)ethyl]benzamide], the figures for the concentration for half-maximal inhibition (IC50) in test [1], in test [2] and in test [3] were more than 5000 nM, 50 to 500 nM and more than 5000 nM, respectively.

Regarding `CC(C)c1ccc(NC(=O)N2CCC[C@H]2C(=O)NCc2ccc(Cl)c(Cl)c2)cc1` [Entry 24, (2S)-N˜2˜-[(3,4-dichlorophenyl)methyl]-N˜1˜-[4-(1-methylethyl)phenyl]pyrrolidine-1,2-dicarboxamide], the figures for the IC50 in test [1], in test [2] and in test [3] were 500 to 5000 nM, 50 to 500 nM and 50 to 500 nM, respectively.

Take `CCCCCCCc1ccc(C(=O)NCC(=O)NC2CCCc3ccccc32)cc1` (stereo not drawn) [Entry 12, 4-heptyl-N-[2-oxo-2-(1,2,3,4-tetrahydronaphthalen-1-ylamino)ethyl]benzamide]: the concentration for half-maximal inhibition (IC50) (in general, the point on the concentration scale where inhibition reaches its midpoint) in test [1] was 500 to 5000 nM; in test [2] it was 50 to 500 nM; in test [3], 50 to 500 nM.

For `O=C(CNC(=O)c1ccc(-n2ccnc2)cc1)NC1CCCc2ccccc21` (stereo not drawn) [Entry 70, 4-(1H-imidazol-1-yl)-N-[2-oxo-2-(1,2,3,4-tetrahydronaphthalen-1-ylamino)ethyl]benzamide], the figures for the IC50 in test [1], in test [2] and in test [3] were 500 to 5000 nM, 50 to 500 nM and 500 to 5000 nM, respectively.

For `CCc1ccc(-c2ccc(C(=O)NCC(=O)NC3CCCc4ccccc43)cc2)cc1` (stereo not drawn) [Entry 4, 4′-ethyl-N-[2-oxo-2-(1,2,3,4-tetrahydronaphthalen-1-ylamino)ethyl]biphenyl-4-carboxamide], the IC50 in test [1], in test [2] and in test [3] was less than 50 nM in each case.

In the case of `COc1ccc2nc(NC(=O)CCCNC(=O)Cn3cnc4sc5c(c4c3=O)CCCC5)sc2c1` [Entry 23, N-[6-(methyloxy)-1,3-benzothiazol-2-yl]-4-{[(4-oxo-5,6,7,8-tetrahydro[1]benzothieno[2,3-d]pyrimidin-3(4H)-yl)acetyl]amino}butanamide], the IC50 in test [1] is 500 to 5000 nM; in test [2], 50 to 500 nM; in test [3] it was 50 to 500 nM.

As for `CCc1ccc(-c2ccc(C(=O)NCC(=O)NCC3COc4ccccc4O3)cc2)cc1` (stereo not drawn) [Entry 65, N-{2-[(2,3-dihydro-1,4-benzodioxin-2-ylmethyl)amino]-2-oxoethyl}-4′-ethylbiphenyl-4-carboxamide], the half-maximal inhibitory concentration (IC50) in test [1], in test [2] and in test [3] was more than 5000 nM throughout.

As to `CCCCCOc1ccc(C(=O)NC(CC(C)C)C(=O)NC2CCCc3ccccc32)cc1` (stereo not drawn) [Entry 35, N˜2˜-{[4-(pentyloxy)phenyl]carbonyl}-N(1,2,3,4-tetrahydronaphthalen-1-yl)leucinamide], the IC50 was 500 to 5000 nM in test [1], 50 to 500 nM in test [2] and more than 5000 nM in test [3].

`O=C(CN1CCN(S(=O)(=O)CCc2cccc3ccccc23)CC1)Nc1ccccn1` [Entry 41, 2-{4-[(2-naphthalen-1-ylethyl)sulfonyl]piperazin-1-yl)-N-pyridin-2-ylacetamide]: the concentration for half-maximal inhibition (IC50) in test [1] is 50 to 500 nM; in test [2], less than 50 nM; in test [3] it was less than 50 nM.

In the case of `O=C(CNC(=O)c1ccc(C2CCCCC2)cc1)NC1CCCc2ccccc21` (stereo not drawn) [Entry 50, 4-cyclohexyl-N-[2-oxo-2-(1,2,3,4-tetrahydronaphthalen-1-ylamino)ethyl]benzamide], the concentration for half-maximal inhibition (IC50) in test [1], in test [2] and in test [3] was 50 to 500 nM in each case.

For the molecule `O=C(CNC(=O)COc1ccc(Br)cc1)NCc1ccc(Cl)c(Cl)c1` [Entry 25, N˜2˜-{[(4-bromophenyl)oxy]acetyl}-N-[(3,4-dichlorophenyl)methyl]glycinamide], the IC50 in test [1] was in the range of 500 to 5000 nM; in test [2] it was 50 to 500 nM; in test [3], 50 to 500 nM.

For the molecule `CCCCCc1ccc(C(=O)NCC(=O)NC2CCCc3ccccc32)cc1` (stereo not drawn) [Entry 11, N-[2-oxo-2-(1,2,3,4-tetrahydronaphthalen-1-ylamino)ethyl]-4-pentylbenzamide], the IC50 in test [1], in test [2] and in test [3] was 50 to 500 nM each time.

Turning to `CCc1ccc(-c2ccc(C(=O)NCC(=O)NCc3ccccc3C)cc2)cc1` [Entry 74, 4′-ethyl-N-(2-{[(2-methylphenyl)methyl]amino}-2-oxoethyl)biphenyl-4-carboxamide], the concentration for half-maximal inhibition (IC50) in test [1], in test [2] and in test [3] was 50 to 500 nM throughout.
